Results reported in US20210087525A1, “COST EFFECTIVE CULTURE MEDIA AND PROTOCOL FOR HUMAN INDUCED PLURIPOTENT STEM CELLS” (NORTHWESTERN UNIVERSITY, priority 2019, published 2021).

Experiments:
hiPSC line 19-3 = assay: short-term 6-day hiPSC growth assay (media variable optimization); assay type: cell-based, human; conditions: for necessity of component for hiPSC growth: short-term assay, FIG. 2; for optimal / sufficient concentration for growth: one passage growth assay, FIG. 2E-F
From the text: FIG. 2A-F. Optimization of Basic Human Pluripotent Stem Cell Medium Constituents with a Short-Term Growth Assay. Results are normalized to initial medium component concentrations shown with a dark gray bar, optimizations were completed using short-term 6-day growth assay. […] (A) Comparison of the effect of recombinant human IGF1 LR3 (n=3) and recombinant human insulin (n=18-22) concentrations on relative growth. (B) L-ascorbic acid 2-phosphate (n=19-27). (C) Transferrin (n=2-20). (D) Sodium selenite (n=3-20). (E) FGF2-K128N (n=3-12). (F) TGFb1 (n=20-25). n=full experimental replicates, unpaired Student's T-test, *P≤0.05, **P≤0.01, ***P≤0.005, ****P≤0.0001, n.s.=not significant.
FIG. 3A-H. Optimization of Additional Human Pluripotent Stem Cell Medium Constituents in a Short-Term Assay. E8 medium component concentrations are shown with a dark gray bar, optimizations were completed using a simple 6-day growth assay. […] (A) Comparison of the suitability of recombinant transferrin (10 μg ml−1) to support clonal growth with and without ROCK1/2 inhibition using Y27632 (10 μM) during the first 24 h after passage (n=3). (B) Comparison of two common ROCK1/2 inhibitors only during first 24 h after passage on relative growth (n>5). (C) Comparison of the effect of the addition of non-essential amino acids (NEAA) and chemically defined lipids (n=5) on relative growth. (D) Fatty acid-free albumin (n=4). (E) Sodium bicarbonate (n=5). (F) pH (n=9). (G) Osmolarity (n=8). (H) FGF2-G3 (n=3). n=full experimental replicates, unpaired Student's T-test, *P≤0.05, **P≤0.01, ***P≤0.005, ****P≤0.0001, n.s.=not significant.
The hiPSC line 19-3 was dissociated with TrypLE (Gibco™, 12604-013) for 3 min at 37° C. and cells were resuspended in DMEM/F12, transferred to a 15 ml conical tube (Falcon) and centrifuged at 200×g for 3 min (Sorvall ST40). The pellet was resuspended in DMEM/F12, diluted to 1×10^5 cells per ml and 10,000 cells were plated per well in Matrigel® (1:800)-coated 12-well plates (Greiner) in the medium to be tested along with 2 μM thiazovivin for the first 24 h. Media were changed daily and cells were grown for 6 days. This lower than normal seeding density was used to allow the discovery of factors only detectable under more extreme conditions and therefore provide data on the robustness to the formulation.

hiPSC = assay: long-term 5-passage, 4-day hiPSC growth assay; assay type: cell-based, human; conditions: for confirmed concentration in long-term assay: FIG. 5A-C; for concentration confirmed / usable / required in long-term assay: FIG. 5D-L; for necessity of component for hiPSC culture: long-term assay, removal of dispensable components reduces growth rate
From the text: FIG. 5A-P. Optimization of B8 Medium Constituents with a Long-Term Growth Assay. Results are normalized to initial medium component concentrations shown with a dark gray bar, optimizations were completed using long-term 5-passage, 4-day growth assay. Comparison of the effect of (A) recombinant human insulin concentration on relative growth (n=10). (B) L-ascorbic acid 2-phosphate (n=10). (C) Recombinant transferrin (n=10). (D) Sodium selenite (n=5). (E) In-house made FGF2-G3 (n=6). (G) NODAL (n=5). (H) Activin A (n=5). (I) In-house made TGFb3 after 9 passages compared to commercial TGFb1 (n=9). (J) Addition of NRG1 to 40 ng ml−1 FGF2-G3 (n>5). (K) Final B8 formula. n=full experimental replicates, unpaired Student's T-test, *P≤0.05, **P≤0.01, ***P≤0.005, ****P≤0.0001, n.s.=not significant.
Our initial short-term experiments provided preliminary optimizations, yet we were aware from previous experiments that some variables, such as the elimination of TGFβ1, had minimal effects short-term and would only have detectable negative effects in long-term experiments. Thus the effectiveness of a long-term assay was evaluated with the following assay protocol: […]

IGF1 LR3: recombinant human IGF1 LR3 (Sigma, 91590C)
level of IGF1 LR3 able to replace insulin (hiPSC line 19-3; FIG. 2A, not cost-effective): ≥ 1 µg/mL

insulin: E. coli-derived recombinant human insulin (Gibco)
concentration up to which effect on growth was dose-dependent (hiPSC line 19-3; FIG. 2A): up to 20 μg ml^−1
necessity of component for hiPSC growth (hiPSC line 19-3): essential
confirmed concentration in long-term assay (hiPSC): 20 µg/mL

FGF2-K128N: recombinant human FGF2 with K128N substitution, made in-house in E. coli (SEQ ID NO: 4/14)
concentrations showing a similar effect on growth rate (hiPSC line 19-3; FGF2-G3 compared with FGF2-K128N, FIG. 3H): 100 ng/mL
optimal / sufficient concentration for growth (hiPSC line 19-3): ≥ 40 ng/mL

TGFβ1: recombinant human TGFβ1 (112 amino acid, HEK293-derived, Peprotech)
optimal / sufficient concentration for growth (hiPSC line 19-3): ≥ 0.5 ng/mL
concentration confirmed / usable / required in long-term assay (hiPSC): 0.1 ng/mL
necessity of component for hiPSC culture (hiPSC): essential

Transferrin: Oryza sativa-derived recombinant human transferrin (Optiferrin, InVitria)
concentration enhancing growth / giving optimal growth (hiPSC line 19-3; FIG. 2B-C): 20 µg/mL
necessity of component for hiPSC growth (hiPSC line 19-3): not essential
confirmed concentration in long-term assay (hiPSC): 20 µg/mL
necessity of component for hiPSC culture (hiPSC): dispensable

O=[Se](O)O [sodium selenite]
concentrations that did not significantly affect growth (hiPSC line 19-3; FIG. 2D): 2 to 200 ng/mL
concentration confirmed / usable / required in long-term assay (hiPSC): 20 ng/mL

O=C(NCc1ccccc1)c1csc(Nc2ccncn2)n1 [thiazovivin, reference compound]
effect on growth vs 10 μM Y27632 (hiPSC line 19-3; 2 μM for the first 24 h after passage, FIG. 3B): marginally, though not significantly, improved growth

FGF2: fibroblast growth factor 2, human FGF2 (SEQ ID NO: 3)
necessity of component for hiPSC growth (hiPSC line 19-3): essential

O=C1O[C@H]([C@@H](O)CO)C(O)=C1OP(=O)(O)O.[Na+].[Na+].[Na+] [Ascorbic acid 2-phosphate, L-ascorbic acid 2-phosphate trisodium salt]
necessity of component for hiPSC growth (hiPSC line 19-3): not essential
confirmed concentration in long-term assay (hiPSC): 200 µg/mL
necessity of component for hiPSC culture (hiPSC): dispensable

O=C([O-])O.[Na+] [sodium bicarbonate]
optimal concentration for growth (hiPSC line 19-3; FIG. 3E): 29 mM

B1: NRG1: 65 amino acid truncated neuregulin 1 containing just the EGF domain (SEQ ID NO: 17) (protein)
chain: SHLVKCAEKEKTFCVNGGECFMVKDLSNPSRYLCKCPNEFTGDRCQNYVMASFYKHLGIEFMEAE
enhancement of growth over FGF2-G3 alone (hiPSC; all tested levels of NRG1 added to 40 ng ml−1 FGF2-G3): > 15%
necessity of component for hiPSC culture (hiPSC): dispensable
support of growth in the absence of FGF2 (hiPSC; no FGF2): not able to support growth

B2: NODAL: Activin/NODAL/TGFβ1 signaling source (protein, UniProt Q96S42 238-347, looked up)
Nodal homolog: HHLPDRSQLCRKVKFQVDFNLIGWGSWIIYPKQYNAYRCEGECPNPVGEEFHPTNHAYIQSLLKRYQPHRVPSTCCAPVKTKPLSMLYVDNGRVLLDHHKDMIVEECGCL
concentration confirmed / usable / required in long-term assay (hiPSC): 100 ng/mL

B3: Activin A: Activin/NODAL/TGFβ1 signaling source (protein, UniProt P08476 311-426, looked up)
Inhibin beta A chain: GLECDGKVNICCKKQFFVSFKDIGWNDWIIAPSGYHANYCEGECPSHIAGTSGSSLSFHSTVINHYRMRGHSPFANLKSCCVPTKLRPMSMLYYDDGQNIIKKDIQNMIVEECGCS
modifications: Inhibin beta A chain
effect on growth in combination with TGFβ1 (hiPSC; FIG. 5I): negative effect on growth
suitability to maintain growth (hiPSC; alone, FIG. 5H): not suitable to maintain growth to the same level as TGFβ1
support of growth at very low doses (hiPSC; very low doses): could support growth, albeit to a lesser extent than TGFβ1
